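Dose response: 5 concentrations. Exposure: 48 h. Format: 96-well plates. Endpoint: linear interpolation; highest concentration if not reached. The concentration for 50% growth inhibition is given as GI50.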 The source made the active and inactive calls. Rule as the data show it: active = GI50 up to about 1.1 µM and inactive = higher.
Columns and labels:
Test in all cases: growth of human tumour cells (NCI), 48 h
[1] = test system: A498
[2] = test system: A549
[3] = test system: CCRF-CEM
[4] = test system: COLO 205
[5] = test system: DLD-1
[6] = test system: DMS-114
[7] = test system: DMS-273
[8] = test system: EKVX
[9] = test system: HCC 2998
[10] = test system: HCT-116
[11] = test system: HCT-15
[12] = test system: HL-60
[13] = test system: HOP-18
[14] = test system: HOP-62
[15] = test system: HOP-92
[16] = test system: HT-29
[17] = test system: IGROV-1
[18] = test system: K562
[19] = test system: KM-20L2
[20] = test system: KM12
[21] = test system: LOX IMVI
[22] = test system: M19-MEL
[23] = test system: MCF7
[24] = test system: MOLT-4
[25] = test system: Malme-3M
[26] = test system: NCI-H226
[27] = test system: NCI-H23
[28] = test system: NCI-H460
[29] = test system: NCI-H522
[30] = test system: NCI/ADR-RES
[31] = test system: OVCAR-3
[32] = test system: OVCAR-4
[33] = test system: OVCAR-5
[34] = test system: OVCAR-8
[35] = test system: RPMI-8226
[36] = test system: RXF 393
[37] = test system: SF-268
[38] = test system: SF-295
[39] = test system: SF-539
[40] = test system: SK-MEL-28
[41] = test system: SK-MEL-2
[42] = test system: SK-MEL-5
[43] = test system: SK-OV-3
[44] = test system: SN12C
[45] = test system: SNB-19
[46] = test system: SNB-75
[47] = test system: SNB-78
[48] = test system: SW-620
[49] = test system: U-251
[50] = test system: UACC-257
[51] = test system: UACC-62
[52] = test system: UO-31
[53] = test system: XF498
[54] = test system: 786-0
[55] = test system: ACHN
[56] = test system: CAKI-1
[57] = test system: LXFL 529
[58] = test system: M14
[59] = test system: SR
[60] = test system: TK-10

COc1cc(/C=C/C(=O)Oc2ccc(NC(C)=O)cc2)ccc1C(=O)O/C=C/c1ccccc1 was tested, and the GI50 [1] was > 100 µM (inactive), the GI50 [2] was > 100 µM (inactive) and the GI50 [3] was > 100 µM (inactive). For the same molecule, the GI50 [4] was > 100 µM (inactive), the GI50 [5] was > 100 µM (inactive) and the GI50 [6] was > 100 µM (inactive). The GI50 [7] was > 100 µM (inactive), the GI50 [8] was > 100 µM (inactive) and the GI50 [9] was > 100 µM (inactive). The GI50 [10] was > 100 µM (inactive), the GI50 [11] was > 100 µM and the GI50 [12] was > 100 µM (inactive). For the same molecule, the GI50 [13] was > 100 µM (inactive), the GI50 [14] was > 100 µM (inactive) and the GI50 [15] was > 100 µM (inactive). The GI50 [16] was > 100 µM (inactive), the GI50 [17] was > 100 µM (inactive) and the GI50 [18] was > 31.6 µM (inactive). The GI50 [19] was > 100 µM (inactive), the GI50 [20] was > 100 µM (inactive) and the GI50 [21] was > 100 µM (inactive). For the same molecule, the GI50 [22] was > 100 µM (inactive), the GI50 [23] was > 100 µM (inactive) and the GI50 [24] was 66.8 µM (inactive). For the same molecule, the GI50 [25] was > 100 µM (inactive), the GI50 [26] was > 100 µM (inactive) and the GI50 [27] was > 100 µM (inactive). The GI50 [28] was > 100 µM (inactive), the GI50 [29] was > 100 µM (inactive) and the GI50 [30] was > 100 µM (inactive). For the same molecule, the GI50 [31] was > 100 µM (inactive), the GI50 [32] was > 100 µM (inactive) and the GI50 [33] was > 100 µM (inactive). For the same molecule, the GI50 [34] was > 100 µM (inactive), the GI50 [35] was > 100 µM (inactive) and the GI50 [36] was > 100 µM (inactive). The GI50 [37] was > 100 µM (inactive), the GI50 [38] was > 100 µM (inactive) and the GI50 [39] was > 100 µM (inactive). The GI50 [40] was > 100 µM (inactive), the GI50 [41] was > 100 µM (inactive) and the GI50 [42] was > 100 µM (inactive). For the same molecule, the GI50 [43] was > 100 µM (inactive), the GI50 [44] was > 100 µM (inactive) and the GI50 [45] was > 100 µM (inactive). The GI50 [46] was > 100 µM (inactive), the GI50 [47] was > 100 µM (inactive) and the GI50 [48] was > 100 µM (inactive). For the same molecule, the GI50 [49] was > 100 µM (inactive), the GI50 [50] was > 100 µM (inactive) and the GI50 [51] was > 100 µM (inactive). The GI50 [52] was 76.4 µM (inactive) and the GI50 [53] was > 100 µM (inactive).
For CCCCCC(=O)N[C@H]1CCc2cc(OC)c(OC)c(OC)c2-c2ccc(SC)c(=O)cc21, the GI50 [54] was 0.0335 µM (active), the GI50 [1] was 0.0172 µM (active) and the GI50 [2] was 0.0306 µM (active). For the same molecule, the GI50 [55] was 0.0374 µM (active), the GI50 [56] was 0.0914 µM (active) and the GI50 [3] was 0.0254 µM (active). For the same molecule, the GI50 [4] was 0.0122 µM (active), the GI50 [5] was < 0.01 µM (active) and the GI50 [6] was < 0.01 µM (active). For the same molecule, the GI50 [8] was 0.0395 µM (active), the GI50 [9] was 0.0212 µM (active) and the GI50 [10] was 0.02 µM (active). For the same molecule, the GI50 [11] was 0.0209 µM, the GI50 [12] was < 0.01 µM (active) and the GI50 [14] was 0.032 µM (active). For the same molecule, the GI50 [15] was < 0.01 µM (active), the GI50 [16] was 0.0233 µM (active) and the GI50 [17] was 0.0241 µM (active). For the same molecule, the GI50 [18] was < 0.01 µM (active), the GI50 [19] was 0.0154 µM (active) and the GI50 [20] was < 0.01 µM (active). For the same molecule, the GI50 [57] was 0.0204 µM (active), the GI50 [58] was 0.016 µM (active) and the GI50 [22] was 0.0229 µM (active). For the same molecule, the GI50 [24] was 0.0516 µM (active), the GI50 [25] was 0.0106 µM (active) and the GI50 [26] was < 0.01 µM (active). The GI50 [27] was < 0.01 µM (active), the GI50 [28] was < 0.01 µM (active) and the GI50 [31] was 0.0153 µM (active). For the same molecule, the GI50 [32] was 17.5 µM (inactive), the GI50 [33] was 47.3 µM (inactive) and the GI50 [34] was 0.0253 µM (active). The GI50 [35] was 0.0181 µM (active), the GI50 [37] was 0.0212 µM (active) and the GI50 [38] was 0.0155 µM (active). For the same molecule, the GI50 [39] was 0.0158 µM (active), the GI50 [40] was 0.0223 µM (active) and the GI50 [42] was 0.014 µM (active). For the same molecule, the GI50 [43] was 0.0224 µM (active), the GI50 [44] was 0.0315 µM (active) and the GI50 [45] was 0.0258 µM (active). For the same molecule, the GI50 [46] was 0.0195 µM (active), the GI50 [47] was 0.00419 µM (active) and the GI50 [59] was 0.00421 µM (active). For the same molecule, the GI50 [48] was 0.0177 µM (active), the GI50 [60] was 0.521 µM (active) and the GI50 [49] was 0.0224 µM (active). The GI50 [50] was < 0.01 µM (active), the GI50 [51] was 0.0204 µM (active) and the GI50 [52] was 0.0308 µM (active). The GI50 [53] was 0.0239 µM (active).
For O=C1Sc2sc(=S)sc2SC1c1ccccc1 (centres undefined), the GI50 [1] was > 100 µM (inactive), the GI50 [2] was > 100 µM (inactive) and the GI50 [56] was 1 µM (active). For the same molecule, the GI50 [3] was 33 µM (inactive), the GI50 [4] was 37.2 µM (inactive) and the GI50 [5] was 32.2 µM (inactive). For the same molecule, the GI50 [6] was 34.3 µM (inactive), the GI50 [7] was > 100 µM (inactive) and the GI50 [8] was > 100 µM (inactive). The GI50 [9] was > 89.7 µM (inactive), the GI50 [10] was > 59 µM (inactive) and the GI50 [11] was 19.4 µM. The GI50 [12] was 20 µM (inactive), the GI50 [13] was 48.1 µM (inactive) and the GI50 [14] was > 100 µM (inactive). The GI50 [15] was 36.6 µM (inactive), the GI50 [16] was 40.8 µM (inactive) and the GI50 [17] was > 100 µM (inactive). The GI50 [18] was 32.7 µM (inactive), the GI50 [19] was > 63.5 µM (inactive) and the GI50 [20] was > 80.9 µM (inactive). The GI50 [21] was 30.8 µM (inactive), the GI50 [22] was 60.4 µM (inactive) and the GI50 [23] was 67.9 µM (inactive). For the same molecule, the GI50 [24] was 31.6 µM (inactive), the GI50 [25] was > 49.3 µM (inactive) and the GI50 [26] was > 81.8 µM (inactive). The GI50 [27] was 82.6 µM (inactive), the GI50 [28] was 80.7 µM (inactive) and the GI50 [29] was 14.2 µM (inactive). The GI50 [30] was 40.5 µM (inactive), the GI50 [31] was 29.8 µM (inactive) and the GI50 [32] was 18.3 µM (inactive). The GI50 [33] was > 100 µM (inactive), the GI50 [34] was 59 µM (inactive) and the GI50 [35] was 46.9 µM (inactive). For the same molecule, the GI50 [36] was 28.4 µM (inactive), the GI50 [37] was 46.6 µM (inactive) and the GI50 [38] was > 81.1 µM (inactive). The GI50 [39] was 74 µM (inactive), the GI50 [40] was > 45.6 µM (inactive) and the GI50 [41] was > 65 µM (inactive). The GI50 [42] was > 100 µM (inactive), the GI50 [43] was > 100 µM (inactive) and the GI50 [44] was > 89.7 µM (inactive). For the same molecule, the GI50 [45] was > 73.1 µM (inactive), the GI50 [46] was > 50.2 µM (inactive) and the GI50 [47] was 31.9 µM (inactive). For the same molecule, the GI50 [48] was 21.1 µM (inactive), the GI50 [49] was 52.5 µM (inactive) and the GI50 [50] was > 74.3 µM (inactive). For the same molecule, the GI50 [51] was 26.8 µM (inactive), the GI50 [52] was 39 µM (inactive) and the GI50 [53] was 45.2 µM (inactive).

— ChEMBL document CHEMBL1201862, “PubChem BioAssay data set” (2004)
